{
  "source": "patent US7981930B2",
  "about": "“Compositions and kits for treating influenza” (Adamas Pharmaceuticals, Inc., priority 2007, dated 2011)",
  "key": {"[1]": {"tested_on": "A/Albany/1/98 (H3N2)", "test": "microbe, parasite or virus in culture", "type": "cell-based", "conditions": "for EC50: Influenza A virus, H3N2, MDCK; for EC25, Target serum C: molar equivalent of in vitro EC25; for EC75, Target serum C: molar equivalent of in vitro EC75; for EC25, In vitro C / EC75, In vitro C: MDCK cells in flasks, virus reduction at 72 hrs"}, "[2]": {"tested_on": "A/Sydney/05/97 H3N2 virus", "type": "cell-based", "conditions": "for increase in sensitivity of the virus to the drug in triple combination compared to monotherapy: drug used with the two other drugs vs. monotherapy; for concentration range at which synergy was seen: drugs in combination, MDCK 96-well"}, "[3]": {"tested_on": "wild type A/Albany (H3N2) strain", "test": "Hollow fiber system, MDCK cells, continuous infusion 168 hours, viral titer and sequencing", "type": "cell-based, Influenza A virus (H3N2)", "conditions": "for effect on viral titer: drug alone at low dose (amantadine 0.1 μg/mL; ribavirin 0.5 μg/mL); for concentrations at which the triple combination demonstrated synergism: hollow fiber, steady-state infusion"}, "[4]": {"tested_on": "A/Victoria/3/75 (H3N2) virus", "test": "Mouse model of influenza infection, treatment started before infection (Example 3A)", "type": "in vivo, mice"}, "[5]": {"tested_on": "A/Victoria/3/75 (H3N2) virus", "test": "Mouse model of influenza infection, treatment initiated 24 or 48 hours after infection (Example 3B)", "type": "in vivo, mice", "conditions": "for weight loss: day 9"}, "[6]": {"tested_on": "Influenza A/Victoria/3/75 (H3N2) virus", "test": "In vitro kinetic assay of mono and combination therapy in MDCK and SIAT-1 cells (viral load by CCID50, CPE scoring)", "type": "cell-based"}, "[7]": {"conditions": "molar equivalent of in vitro EC50, read-out: EC50, Target serum C"}, "[8]": {"conditions": "monotherapy, concentration of drug that reduces 50% of the virus at 72 hrs, read-out: EC50, In vitro C"}, "[9]": {"conditions": "drug alone at high dose (amantadine 1.0 μg/mL; ribavirin 5 μg/mL), 48 hours"}, "[10]": {"conditions": "amantadine 3 mg/ml, oseltamivir 10 or 30 mg/kg/day, ribavirin 7 or 21 mg/kg/day, monotherapy"}, "[11]": {"conditions": "treatment initiated 48 hours after infection"}},
  "note": "Like-named read-outs stand apart in the source and are kept apart here.",
  "data": [
    {"smiles": "NC(=O)c1ncn([C@@H]2O[C@H](CO)[C@@H](O)[C@H]2O)n1", "note": "[Ribavirin]", "values": [
      {"measurement": "EC50", "setting": "[1]; [7]", "value": 1030, "unit": "nM"},
      {"measurement": "EC50", "setting": "[1]; [8]", "value": 420, "unit": "ng/mL"},
      {"measurement": "EC25, Target serum C", "setting": "[1]", "value": 760, "unit": "nM"},
      {"measurement": "EC75, Target serum C", "setting": "[1]", "value": 1500, "unit": "nM"},
      {"measurement": "EC25, In vitro C", "setting": "[1]; monotherapy", "value": 310, "unit": "ng/mL"},
      {"measurement": "EC75, In vitro C", "setting": "[1]; monotherapy", "value": 615, "unit": "ng/mL"},
      {"measurement": "increase in sensitivity of the virus to the drug in triple combination compared to monotherapy", "setting": "[2]", "value": 100, "unit": "fold"},
      {"measurement": "concentration range at which synergy was seen", "setting": "[2]", "value": "0.032 to 1.0", "unit": "µg/mL"},
      {"measurement": "reduction in viral load", "setting": "[2]; ribavirin monotherapy at 1 μg/ml", "value": "approximately 10%"},
      {"measurement": "reduction in viral load", "setting": "[2]; ribavirin monotherapy at 3.2 μg/ml", "value": "~95", "unit": "%"},
      {"measurement": "reduction in titer", "setting": "[3]; [9]", "value": "~3", "unit": "log"},
      {"measurement": "effect on viral titer", "setting": "[3]", "value": "negligible effect"},
      {"measurement": "concentrations at which the triple combination demonstrated synergism", "setting": "[3]", "value": "0.5 to 5", "unit": "µg/mL"},
      {"measurement": "weight loss during the infection", "setting": "[4]; [10]", "value": "more substantial"},
      {"measurement": "times to death", "setting": "[4]; mouse, in vivo", "value": "significantly increased"},
      {"measurement": "weight loss", "setting": "[5]; [11]", "value": "about 26%"},
      {"measurement": "weight as percent of original weight", "setting": "[5]; treatment initiated 48 hours after infection, day 13", "value": "approximately 80%"}
    ]},
    {"smiles": "CCOC(=O)C1=C[C@@H](OC(CC)CC)[C@H](NC(C)=O)[C@@H](N)C1", "note": "[Oseltamivir]", "values": [
      {"measurement": "EC50", "setting": "[1]; 72 h, read-out: EC50, In vitro C", "value": 0.05, "unit": "ng/mL"},
      {"measurement": "EC50", "setting": "[1]; read-out: EC50, Target serum C", "value": 0.16, "unit": "nM"},
      {"measurement": "EC25, Target serum C", "setting": "[1]", "value": 0.080, "unit": "nM"},
      {"measurement": "EC75, Target serum C", "setting": "[1]", "value": 0.240, "unit": "nM"},
      {"measurement": "EC25, In vitro C", "setting": "[1]; monotherapy", "value": 0.025, "unit": "ng/mL"},
      {"measurement": "EC75, In vitro C", "setting": "[1]; monotherapy", "value": 0.075, "unit": "ng/mL"},
      {"measurement": "increase in sensitivity of the virus to the drug in triple combination compared to monotherapy", "setting": "[2]", "value": "over 100 fold"},
      {"measurement": "concentration range at which synergy was seen", "setting": "[2]", "value": "0.001 to 0.032", "unit": "µg/mL"},
      {"measurement": "reduction in viral load", "setting": "[2]; oseltamivir monotherapy at 0.1 μg/ml", "value": "~50", "unit": "%"},
      {"measurement": "concentrations at which the triple combination demonstrated synergism", "setting": "[3]", "value": "0.001 to 0.01", "unit": "µg/mL"},
      {"measurement": "reduction in titer", "setting": "[3]; oseltamivir alone, both doses (1 and 10 ng/mL)", "value": "~1", "unit": "log"},
      {"measurement": "weight loss during the infection", "setting": "[4]; [10]", "value": "more substantial"},
      {"measurement": "mice protected, UK/EU mortality criteria (death=20% weight loss)", "setting": "[4]; oseltamivir 10 mg/kg/day, amantadine 3 mg/ml, ribavirin 7 mg/kg/day, as monotherapy or as triple combination at the same concentrations", "value": 40, "unit": "%"},
      {"measurement": "survival benefit", "setting": "[4]; oseltamivir monotherapy at 10 and 30 mg/kg/day oral gavage", "value": "92-100%"},
      {"measurement": "mortality (UK/EU mortality criteria)", "setting": "[5]; treatment initiated 24 hours after infection, by day 9, amantadine 28, oseltamivir 10 mg/kg/day", "value": 100, "unit": "%"},
      {"measurement": "weight loss", "setting": "[5]; [11]", "value": "~35", "unit": "%"}
    ]},
    {"smiles": "NC12CC3CC(CC(C3)C1)C2", "note": "[Amantadine, 1-amino-adamantane]", "values": [
      {"measurement": "EC50", "setting": "[1]; [7]", "value": 480, "unit": "nM"},
      {"measurement": "EC50", "setting": "[1]; [8]", "value": 91, "unit": "ng/mL"},
      {"measurement": "EC25, Target serum C", "setting": "[1]", "value": 288, "unit": "nM"},
      {"measurement": "EC75, Target serum C", "setting": "[1]", "value": 815, "unit": "nM"},
      {"measurement": "EC25, In vitro C", "setting": "[1]; monotherapy", "value": 54, "unit": "ng/mL"},
      {"measurement": "EC75, In vitro C", "setting": "[1]; monotherapy", "value": 153, "unit": "ng/mL"},
      {"measurement": "reduction in viral load", "setting": "[2]; amantadine monotherapy at 1 μg/ml", "value": "~60", "unit": "%"},
      {"measurement": "increase in sensitivity of the virus to the drug in triple combination compared to monotherapy", "setting": "[2]", "value": 10, "unit": "fold"},
      {"measurement": "concentration range at which synergy was seen", "setting": "[2]", "value": "0.1 to 1", "unit": "µg/mL"},
      {"measurement": "time post infection until substantial cell death was seen", "setting": "[6]", "value": 144, "unit": "h"},
      {"measurement": "reduction in titer", "setting": "[3]; [9]", "value": "2-3 log"},
      {"measurement": "effect on viral titer", "setting": "[3]", "value": "negligible effect"},
      {"measurement": "concentrations at which the triple combination demonstrated synergism", "setting": "[3]", "value": "0.1 to 1", "unit": "µg/mL"},
      {"measurement": "survival rate", "setting": "[4]; amantadine 3 mg/ml by Alzet pump (4 mg/kg/day), 3 survivors out of 11", "value": 27, "unit": "%"},
      {"measurement": "weight loss during the infection", "setting": "[4]; [10]", "value": "more substantial"},
      {"measurement": "protection (survival)", "setting": "[4]; amantadine 10 mg/ml by Alzet pump (13 mg/kg/day)", "value": 92, "unit": "%"},
      {"measurement": "weight loss during the infection", "setting": "[4]; amantadine 10 mg/ml monotherapy", "value": "minimal"},
      {"measurement": "mice protected, UK/EU mortality criteria (death=20% weight loss)", "setting": "[4]; mouse, in vivo", "value": 10, "unit": "%"},
      {"measurement": "times to death", "setting": "[4]; mouse, in vivo", "value": "significantly increased"},
      {"measurement": "mortality (UK/EU mortality criteria)", "setting": "[5]; mouse, in vivo", "value": 100, "unit": "%"},
      {"measurement": "weight loss", "setting": "[5]; [11]", "value": "~35", "unit": "%"}
    ]}
  ]
}
